Experimental data taken from patent US20220275534A1, “Peptide Library Production Method” (The University of Tokyo, priority 2018, published 2022).
Positions of bridges follow the written chain, without caps; N, C: chain ends. Non-standard residues stand in square brackets, D forms with d. No end group written: not given here.

Tests used:
OltF = assay: Prenylation of Trp present at N terminal with OltF (Example 23); format: biochemical, Planktothrix; details: 100 μM OltF, 2.1 mM DMAPP, 37° C., 18 hours (FIG. 19, FIG. 20)
Description: The cyclic peptide shown below was obtained by translation and synthesis under the following (Conditions 32) in the artificial translation system developed by the present inventors. The translated mixture thus obtained was then reacted (prenylated) under the following (Conditions 33).
(Conditions 32) • 19aa-mix (19 kinds of proteinogenic amino acids other than M)]: 0.5 mM • ClAc-D-Tyr-tRNA^fMetCUA: 50 μM • Reaction: 37° C. and 30 minutes in an artificial translation-system solution. • Scale: 2.5 μL scale
(Conditions 33) • Translated mixture amount: 2.5 μL (mixture obtained under (Conditions 32)) • OltF: 100 μM • DMAPP: 2.1 mM • Reaction: 37° C., 18 hours • Scale: 5.7 μL scale

MetAP1 = MetAP1 (Homo sapiens, UniProt P53582); assay: MetAP1 inhibition test of prenylated cyclic peptide (probe fluorescence); format: biochemical; details: prenylated peptide at 1 μM, 5 μM or 10 μM; cofactor Mn2+ or Co2+ 100 μM; MetAP1 1 μM; 37° C., 120 min (FIG. 13)
Description: A MetAP1 inhibition test was performed in vitro using the prenylated Met2, Met3a-L, and Met3-1 at concentrations of 1 μM, 5 μM or 10 μM in the presence of a MetAP1 cofactor Mn^2+ or Co^2+. In the test, enzymatic activity was measured by detecting probe fluorescence, that is, fluorescence emitted depending on the enzymatic activity of MetAP1.
(Conditions) • Scale: 20 μL • Cyclic peptide: 1, 5, 10 μM • MnCl2 or CoCl2: 100 μM • MetAP1 enzymatic activity probe: 1 μM • MetAP1: 1 μM • Tris (pH7.6): 25 mM • NaCl: 75 mM • Reaction: 37° C., 120 min.
After the reaction, the fluorescence intensity of the probe was measured using a plate reader.

KgpF v 3.1 = assay: Prenylation of artificial cyclic peptides with 10 μM KgpF v 3.1 (Example 11; Table 7); format: biochemical, Microcystis aeruginosa; design: key: 5: strong intensity; 4: medium intensity; 3: weak intensity; 2: very weak intensity; 1: no peak; N/A: not observed; details: KgpF v 3.1 10 μM
Description: Reaction of the artificial cyclic peptide shown in Table 7 was made under conditions similar to (Conditions 11) and (Conditions 12) except that v8s/v11.1 was used as FIT system, KgpF v 3.1 was used as a prenylation modification enzyme, and the concentration of the KgpF v 3.1 was set at 10 μM. Here, KgpF v 3.1 is an enzyme having a higher purification degree and more improved specific activity than KgpF used under (Conditions 12).

KgpF [1] = assay: Prenylation of translated thioether-closed artificial cyclic peptides with KgpF, MALDI-TOF-MS analysis (Examples 1-9; 37° C., 18 hours); format: biochemical, Microcystis aeruginosa; details: Examples 4-7: 160 μM KgpF, 2 mM DMAPP
Description: With regards to each of KgpF and OltF, heterogeneous co-expression of a gene synthesized after optimizing the codon of a gene derived from a producing strain was performed in Escherichia coli, followed by purification to obtain a prenylation enzyme.
The analysis was performed using UltrafleXtreme (Bruker Daltonics) or Autoflex II (Bruker Daltonics) and peptide calibration standard II (Bruker Daltonics).
In short, six kinds in total of peptides were obtained by translation and synthesis under (Conditions 1) of the artificial translation system developed by the present inventors. The peptides thus obtained were then reacted with 14.7 μM KgpF at 37° C. for 18 hours in the system shown in (Conditions 2). “DMAPP” used in (Conditions 2) is dimethylallyl pyrophosphoric acid.
(Conditions 1) • FIT system: v7s/v8.0.3 • 19aa-Met: 0.5 mM • ClAc-D or L-Trp-tRNA^fMetCUA: 90 μM • Reaction: 37° C., 60 min. • Scale: […] scale
(Conditions 2) • Translated mixture amount: 2.5 μL (mixture obtained under (Conditions 1)) • KgpF: 14.7 μM • DMAPP: 2 mM • Total amount: 15.7 μL • Reaction: 37° C., 18 hours
The YG280 sequences having the steric configuration of the N terminal Trp serving as an initiation residue of D-form and those of L-form were synthesized, so that two kinds of peptides were prepared in total. These two kinds of artificial cyclic peptides were obtained by translation and synthesis in the artificial translation system (Conditions 3) developed by the present inventors. The peptides thus obtained were then reacted with 53, 160, and 580 μM KgpF in a system shown in (Conditions 4) at 37° C. for 18 hours.
(Conditions 3) • FIT system: v7s/v8.0.3 • 19aa-Met: 0.5 mM • ClAc-D or L-Trp-tRNA^fMetCUA: 120 μM • Reaction: 37° C., 3 hours • Scale: 2.5 μL scale
(Conditions 4) • Translated mixture amount: 2.5 μL (mixture obtained under (Conditions 3)) • KgpF: 53, 160, 580 μM • DMAPP: 2 mM • Reaction: 37° C., 18 hours
(§1) The above three kinds of artificial cyclic peptides were obtained by translation and synthesis in the artificial translation system (Conditions 5) developed by the present inventors. The peptides thus obtained were then reacted with KgpF in the system shown below in (Conditions 6) at 37° C. for 18 hours.
(Conditions 5) • FIT system: v7s/v8.0.3 • 19aa-Met: 0.5 mM • ClAc-D or L-Trp-tRNA^fMetCUA: 90 μM • Reaction: 37° C., 60 min. • Scale: 2.5 μL scale
(Conditions 6) • Translated mixture amount: 2.5 μL (mixture obtained under (Conditions 5)) • KgpF: 160 or 580 μM • DMAPP: 2 mM • Reaction: 37° C., 18 hours
as §1, with “six” for “three”, “7)” for “5)”, “with 160 μM” for “with”, “shown” for “shown below”, “8)” for “6)”
(Conditions 7) • FIT system: v7s/v9.1 • 19aa-Met: 0.5 mM • ClAc-D-Tyr-tRNA^fMetCUA: 90 μM • Reaction: 37° C., 60 min. • Scale: 2.5 μL scale
(Conditions 8) • Translated mixture amount: 2.5 μL (mixture obtained under (Conditions 7)) • KgpF: 160 μM • DMAPP: 2 mM • Reaction: 37° C., 18 hours
as §1, with “9)” for “5)”, “with 160 μM” for “with”, “shown” for “shown below”, “10)” for “6)”
(Conditions 9) • FIT system: v7s/v9.1 • 19aa-Met: 0.5 mM • ClAc-D-Tyr-tRNA^fMetCUA: 90 μM • Reaction: 37° C., 60 min. • Scale: 2.5 μL scale
(Conditions 10) • Translated mixture amount: 2.5 μL (mixture obtained under (Conditions 9)) • KgpF: 160 μM • DMAPP: 2 mM • Reaction: 37° C., 18 hours
The above artificial cyclic peptides were obtained by translation and synthesis in the artificial translation system (Conditions 11) developed by the present inventors. […]

KgpF [2] = assay: Modification of the same peptides with KgpF in liquid phase, Conditions 13/14 with 14 hours (Example 18; Table 17); format: biochemical, Microcystis aeruginosa; design: key: 5: strong intensity; 4: medium intensity; 3: weak intensity; 2: very weak intensity; 1: no peak; N/A: not observed; details: KgpF Liquid phase 160 μM
Description: (Conditions 13) • FIT system: v8s/v11.0 • 19aa-Met: 0.5 mM • ClAc-D-Tyr-tRNA^fMetCUA: 90 μM • Reaction: 37° C., 60 min. • Scale: 2.5 μL scale
(§2) After the above reaction was performed, the reaction product was incubated at 25° C. for 12 minutes.
(§3) Then, a cyclization reaction was performed under the following conditions. • Translated mixture amount: 2.5 μL (mixture obtained by the above reaction) • EDTA: 18 mM • Reaction: 42° C., 60 min. • Scale: 2.75 μL scale
(Conditions 14) • Translated mixture amount: 2.75 μL (mixture obtained under (Conditions 13)) • KOH: 6.0 mM • Mg(OAc)2: 9.0 mM • Tris-HCl (pH 8.3) 15 mM • KgpF: 160 μM • DMAPP: 2 mM • Reaction: 0° C., 20 hours
(§4) The artificial cyclic peptides shown in Table were synthesized under (Conditions 25) and were brought into contact with KgpF in solid phase under (Conditions 26). In addition, the same peptides were reacted in liquid phase under conditions shown in (Conditions 13) and (Conditions 14) except that the prenylation reaction time was changed to 14 hours.

[3] = test system: KgpF immobilized onto magnetic beads; assay: Modification of artificial cyclic peptides with KgpF immobilized onto magnetic beads, solid phase (Example 18; Table 17); format: biochemical, Microcystis aeruginosa; design: key: 5: strong intensity; 4: medium intensity; 3: weak intensity; 2: very weak intensity; 1: no peak; N/A: not observed; details: KgpF Solid phase (magnetic beads) 72 μM, 4° C., 14 hours
Text: Dynabeads His-Tag Isolation and Pulldown (Invitrogen) was brought into contact with KgpF having a His-tag added N terminal and the KgpF was immobilized onto the magnetic beads. […] When it exceeded a predetermined amount, immobilization reached saturation.
as §4
(Conditions 25) • FIT system: v8s/v11.1 • 19aa-Met: 0.5 mM • ClAc-D-Tyr-tRNA^fMetCUA: 90 μM • Reaction: 37° C., 60 min. • Scale: 2.5 μL scale
as §2, §3
(Conditions 26) • Translated mixture amount: 2.75 μL (mixture obtained under (Conditions 25)) • KOH: 6.0 mM • Mg(OAc)2: 9.0 mM • Tris-HCl (pH 8.3) 15 mM • KgpF immobilized onto magnetic beads: 72 μM • DMAPP: 2 mM • Reaction: 4° C., 14 hours, rotation mixing

OltF, sequence (as listed by the source): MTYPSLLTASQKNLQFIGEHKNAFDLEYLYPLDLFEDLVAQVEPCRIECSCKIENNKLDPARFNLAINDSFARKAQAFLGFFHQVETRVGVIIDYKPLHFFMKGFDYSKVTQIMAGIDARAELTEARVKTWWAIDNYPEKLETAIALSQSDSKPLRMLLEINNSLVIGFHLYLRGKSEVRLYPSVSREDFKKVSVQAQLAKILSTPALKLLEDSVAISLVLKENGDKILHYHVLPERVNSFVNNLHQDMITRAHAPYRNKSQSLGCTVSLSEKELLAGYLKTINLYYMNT
KgpF, sequence (as listed by the source): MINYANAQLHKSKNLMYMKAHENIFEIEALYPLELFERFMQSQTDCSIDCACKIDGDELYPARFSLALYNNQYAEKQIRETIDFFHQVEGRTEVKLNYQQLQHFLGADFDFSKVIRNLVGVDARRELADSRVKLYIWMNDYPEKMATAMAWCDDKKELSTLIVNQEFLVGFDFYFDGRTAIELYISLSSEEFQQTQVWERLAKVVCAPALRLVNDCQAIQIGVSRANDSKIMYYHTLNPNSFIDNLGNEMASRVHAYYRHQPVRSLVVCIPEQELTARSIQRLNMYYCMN

AY016: cyclic peptide containing a Trp at N terminal position, SEQ ID NO: 373 (WHDYRIARYHTYPC; also: cyclic)
prenylation modification with OltF (MALDI-TOF-MS) (OltF): Trp at the N terminal position was prenylated

AY020: cyclic peptide containing a Trp at N terminal position, SEQ ID NO: 377 (WSNRERGSDDDAGGPC; also: cyclic)
prenylation modification with OltF (MALDI-TOF-MS) (OltF): Trp at the N terminal position was prenylated

AY019: cyclic peptide containing a Trp at N terminal position, SEQ ID NO: 376 (WSNVSGRAGYFPC; also: cyclic)
prenylation modification with OltF (MALDI-TOF-MS) (OltF): Trp at the N terminal position was prenylated

Met3a-L: cyclic peptide SEQ ID NO: 362 from MetAP1 screening, Fmoc solid-phase synthesis, prenylated with KgpF (YKRKAWLC; also: cyclic, ring not given here, prenylated with KgpF)
inhibition of the enzymatic activity of MetAP1 (MetAP1): inhibit the enzymatic activity of MetAP1

YG289-S2iD7: cyclic peptide obtained by translation and synthesis ({CH2CO}-[dY]HDYRIWRYHTYPC; thioether N-14 (inferred))
Peak intensity, The number of prenyl groups added 0 (KgpF v 3.1): 1 | Peak intensity, The number of prenyl groups added 1 (KgpF v 3.1): 5 | prenylation modification with KgpF (MALDI-TOF-MS) (KgpF [1]): modified with a prenyl group

YG292-PaktiL5: cyclic peptide obtained by translation and synthesis ({CH2CO}-[dY]IRRPWVPIIYLGC; thioether N-14 (inferred))
Peak intensity, The number of prenyl groups added 0 (KgpF v 3.1): 1 | Peak intensity, The number of prenyl groups added 1 (KgpF v 3.1): 5 | prenylation modification with KgpF (MALDI-TOF-MS) (KgpF [1]): modified with a prenyl group

Clone-T2 (Ac-[dY]LVRERENTWKVTC; thioether (positions not given here); not fully specified (bridges))
Peak intensity, The number of prenyl groups added 0 (KgpF [2]): 1 | Peak intensity, The number of prenyl groups added 1 (KgpF [2]): 4 | Peak intensity, The number of prenyl groups added 0 [3]: 1 | Peak intensity, The number of prenyl groups added 1 [3]: 5

Clone-V3 (Ac-[dY]VWNVKIKPKTTKC; thioether (positions not given here); not fully specified (bridges))
Peak intensity, The number of prenyl groups added 0 (KgpF [2]): 1 | Peak intensity, The number of prenyl groups added 1 (KgpF [2]): 5 | Peak intensity, The number of prenyl groups added 0 [3]: 1 | Peak intensity, The number of prenyl groups added 1 [3]: 5

AY015: cyclic peptide containing a Trp at N terminal position, SEQ ID NO: 372 (WSNFRIARYSNSSC; also: cyclic)
prenylation modification with OltF (MALDI-TOF-MS) (OltF): Trp at the N terminal position was prenylated

AY017: cyclic peptide containing a Trp at N terminal position, SEQ ID NO: 374 (WCDVSGRAGYFPC; also: cyclic)
prenylation modification with OltF (MALDI-TOF-MS) (OltF): Trp at the N terminal position was prenylated

AY018: cyclic peptide containing a Trp at N terminal position, SEQ ID NO: 375 (WNNRERGSDDDAGGPC; also: cyclic)
prenylation modification with OltF (MALDI-TOF-MS) (OltF): Trp at the N terminal position was prenylated

YG297-aMD4: cyclic peptide obtained by translation and synthesis ({CH2CO}-[dY]RQFNRRTHEVWNLDC; thioether N-16 (inferred))
Peak intensity, The number of prenyl groups added 0 (KgpF v 3.1): 1 | Peak intensity, The number of prenyl groups added 1 (KgpF v 3.1): 5 | prenylation modification with KgpF (MALDI-TOF-MS) (KgpF [1]): modified with a prenyl group
